Among the data in patent publication US10308650B2, “Pesticidally active tetracyclic derivatives with sulfur containing substituents” (Syngenta Participations AG, priority 2014, dated 2019) are percent effect (mortality or growth inhibition), mortality and percent effect (mortality, anti-feeding or growth inhibition) values, retold here.

Common to all, as to assay type: in vivo
For assay [1], the system named is Euschistus heros (Neotropical Brown Stink Bug). Description: Activity against Euschistus heros. Conditions: 120 h, application rate of 200 ppm, soybean leaves, N2 nymphs, 5 days after infestation, read-out: effect in at least one of the two categories (mortality or growth inhibition). On the procedure:
Example B3: Activity Against Euschistus heros (Neotropical Brown Stink Bug)
Soybean leaves on agar in 24-well microtiter plates were sprayed with aqueous test solutions prepared from 10,000 ppm DMSO stock solutions. After drying the leaves were infested with N2 nymphs. The samples were assessed for mortality and growth inhibition in comparison to untreated samples 5 days after infestation.

Assay [2] relates to Myzus persicae (Green Peach Aphid). Description: Activity against Myzus persicae: systemic activity. The following applies: 144 h, test rate of 24 ppm, roots of infested pea seedlings in test solution, 6 days, read-out: mortality. On the procedure: Example B6: Activity Against Myzus persicae (Green Peach Aphid). Systemic Activity
Roots of pea seedlings infested with an aphid population of mixed ages were placed directly into aqueous test solutions prepared from 10,000 DMSO stock solutions. The samples were assessed for mortality 6 days after placing seedlings into test solutions.

Assay [3] concerns Diabrotica balteata (Corn Root Worm). Kind of assay: Activity against Diabrotica balteata. The following applies: 96 h, application rate of 200 ppm, maize sprouts, L2 larvae, 4 days after infestation, read-out: effect in at least one of the two categories (mortality or growth inhibition). On the procedure:
Example B2: Activity Against Diabrotica balteata (Corn Root Worm)
Maize sprouts placed onto an agar layer in 24-well microtiter plates were treated with aqueous test solutions prepared from 10,000 ppm DMSO stock solutions by spraying. After drying, the plates were infested with L2 larvae (6 to 10 per well). The samples were assessed for mortality and growth inhibition in comparison to untreated samples 4 days after infestation.

Assay [4] deals with Myzus persicae (Green Peach Aphid). Description: Activity against Myzus persicae: feeding/contact activity. The following applies: foliar, 144 h, application rate of 200 ppm, sunflower leaf discs, aphid population of mixed ages, 6 days after infestation, read-out: mortality. On the procedure: Example B5: Activity Against Myzus persicae (Green Peach Aphid): Feeding/Contact Activity
Sunflower leaf discs were placed onto agar in a 24-well microtiter plate and sprayed with aqueous test solutions prepared from 10,000 ppm DMSO stock solutions. After drying, the leaf discs were infested with an aphid population of mixed ages. The samples were assessed for mortality 6 days after infestation.

Assay [5] relates to Bemisia tabaci (Cotton White Fly). Kind of assay: Activity against Bemisia tabaci: feeding/contact activity. The following applies: foliar, 144 h, application rate of 200 ppm, cotton leaf discs, adult white flies, 6 days after incubation. On the procedure:
Example B1: Activity Against Bemisia tabaci (Cotton White Fly): Feeding/Contact Activity
Cotton leaf discs were placed on agar in 24-well microtiter plates and sprayed with aqueous test solutions prepared from 10,000 ppm DMSO stock solutions. After drying the leaf discs were infested with adult white flies. The samples were checked for mortality 6 days after incubation.

Assay [6] deals with Plutella xylostella (Diamond Back Moth). Description: Activity against Plutella xylostella. Conditions: 120 h, application rate of 200 ppm, artificial diet, L2 larvae, 5 days after infestation, read-out: effect in at least one of the two categories (mortality or growth inhibition). On the procedure:
Example B8: Activity Against Plutella xylostella (Diamond Back Moth)
24-well microtiter plates with artificial diet were treated with aqueous test solutions prepared from 10,000 ppm DMSO stock solutions by pipetting. After drying, the plates were infested with L2 larvae (10 to 15 per well). The samples were assessed for mortality and growth inhibition in comparison to untreated samples 5 days after infestation.

The test system of assay [7] is Spodoptera littoralis (Egyptian Cotton Leaf Worm). Kind of assay: Activity against Spodoptera littoralis (lettuce, uptake by the roots from agar). Conditions: 144 h, test rate of 12.5 ppm, lettuce grown on treated agar, Spodoptera eggs, 6 days after infestation, read-out: effect in at least one of the three categories (mortality, anti-feeding, or growth inhibition). An excerpt: Example B10: Activity Against Spodoptera littoralis (Egyptian Cotton Leaf Worm)
Test compounds were applied by pipette from 10,000 ppm DMSO stock solutions into 24-well plates and mixed with agar. Lettuce seeds were placed onto the agar and the multi well plate was closed by another plate which contained also agar. After 7 days the compound was absorbed by the roots and the lettuce grew into the lid plate. The lettuce leaves were then cut off into the lid plate. Spodoptera eggs were pipetted through a plastic stencil onto a humid gel blotting paper and the lid plate was closed with it. The samples were assessed for mortality, anti-feedant effect and growth inhibition in comparison to untreated samples 6 days after infestation.

For assay [8] the test system is unchanged. Kind of assay: Activity against Spodoptera littoralis (cotton leaf discs, spray). Conditions: foliar, 72 h, application rate of 200 ppm, cotton leaf discs, L1 larvae, 3 days after infestation, read-out: control (mortality, anti-feeding effect, growth inhibition). Here is the method:
Example B9: Activity Against Spodoptera littoralis (Egyptian Cotton Leaf Worm)
Cotton leaf discs were placed onto agar in 24-well microtiter plates and sprayed with aqueous test solutions prepared from 10,000 ppm DMSO stock solutions. After drying the leaf discs were infested with five L1 larvae. The samples were assessed for mortality, anti-feeding effect, and growth inhibition in comparison to untreated samples 3 days after infestation. Control of Spodoptera littoralis by a test sample is given when at least one of the categories mortality, anti-feedant effect, and growth inhibition is higher than the untreated sample.

In general, mortality refers to the share of the test organisms that died.

For the compound `CCS(=O)(=O)c1cc2[nH]c(C(F)(F)F)nc2nc1-c1nc2cc(C(F)(F)F)ncc2n1C` [Compound A34, 6-ethylsulfonyl-5-[3-methyl-6-(trifluoromethyl)imidazo[4,5-c]pyridin-2-yl]-2-(trifluoromethyl)-1H-imidazo[4,5-b]pyridine], the percent effect (mortality or growth inhibition) at 200 ppm in assay [1] and in assay [3] was no less than 80% in each case. In assay [2], the mortality at 24 ppm was no less than 80%.

As to `CCS(=O)(=O)c1cc2nnn(C)c2cc1-c1nc2cc(C(F)(F)F)ncc2n1C` [Compound A35, 5-ethylsulfonyl-1-methyl-6-[3-methyl-6-(trifluoromethyl)imidazo[4,5-c]pyridin-2-yl]benzotriazole], the mortality at 200 ppm in assay [4] was no less than 80%. Besides, the mortality at 24 ppm in assay [2] is no less than 80%. Further, the percent effect (mortality or growth inhibition) at 200 ppm in assay [3] is no less than 80%.

Take `CCS(=O)(=O)c1cc2c[n+]([O-])ccc2cc1-c1nc2cc(C(F)(F)F)ncc2n1C` [Compound A27, 7-ethylsulfonyl-6-[3-methyl-6-(trifluoromethyl)imidazo[4,5-c]pyridin-2-yl]-2-oxido-isoquinolin-2-ium]: the mortality at 200 ppm in assay [5] and in assay [4] was no less than 80% each time. For the same compound, the percent effect (mortality or growth inhibition) at 200 ppm in assay [1] is no less than 80%. The mortality at 24 ppm in assay [2] was no less than 80%.

Regarding `CCS(=O)(=O)c1cc2c(cc1-c1nc3cc(C(F)(F)F)ncc3n1C)nc(C)n2C` (single isomer, unassigned) [Compound A15, 2-(6-ethylsulfonyl-1,2-dimethyl-benzimidazol-5-yl)-3-methyl-6-(trifluoromethyl)imidazo[4,5-c]pyridine], the percent effect (mortality or growth inhibition) at 200 ppm in assay [1] and in assay [6] was no less than 80% throughout. Also, the mortality at 200 ppm in assay [4] is no less than 80%. In addition, the mortality at 24 ppm in assay [2] is no less than 80%.

With `CCS(=O)(=O)c1cc2cnccc2cc1-c1nc2cc(C(F)(F)F)ncc2n1C` [Compound A26, 7-ethylsulfonyl-6-[3-methyl-6-(trifluoromethyl)imidazo[4,5-c]pyridin-2-yl]isoquinoline], the percent effect (mortality or growth inhibition) at 200 ppm in assay [1] is no less than 80%.

On to `CCS(=O)(=O)c1cc2ncn(C)c2cc1-c1nc2cc(C(F)(F)F)ncc2n1C` (single isomer, unassigned) [Compound A11, 2-(6-ethylsulfonyl-3-methyl-benzimidazol-5-yl)-3-methyl-6-(trifluoromethyl)imidazo[4,5-c]pyridine], for which the percent effect (mortality or growth inhibition) at 200 ppm in assay [1] and in assay [3] was no less than 80% throughout. Further, the mortality at 200 ppm in assay [4] was no less than 80%. Besides, the mortality at 24 ppm in assay [2] was no less than 80%.

As to `CC[S+]([O-])c1cc2ccccc2cc1-c1nc2cc(C(F)(F)F)cnc2n1C` (stereo not shown) [Compound A2, 2-(3-ethylsulfinyl-2-naphthyl)-3-methyl-6-(trifluoromethyl)imidazo[4,5-b]pyridine], the percent effect (mortality or growth inhibition) at 200 ppm in assay [1] and in assay [3] was no less than 80% throughout.

In the case of `CCS(=O)(=O)c1cc2c(cc1-c1nc3cc(C(F)(F)F)ncc3n1C)ncn2C` (single isomer, unassigned) [Compound A12, 2-(6-ethylsulfonyl-1-methyl-benzimidazol-5-yl)-3-methyl-6-(trifluoromethyl)imidazo[4,5-c]pyridine], the percent effect (mortality or growth inhibition) at 200 ppm in assay [1] and in assay [6] was no less than 80% each time. Further, the mortality at 200 ppm in assay [4] was no less than 80%. Further, in assay [2], the mortality at 24 ppm was no less than 80%.

With `CCS(=O)(=O)c1cc2c(cc1-c1nc3cc(C(F)(F)F)ncc3n1C)nnn2C` [Compound A36, 6-ethylsulfonyl-1-methyl-5-[3-methyl-6-(trifluoromethyl)imidazo[4,5-c]pyridin-2-yl]benzotriazole], the percent effect (mortality or growth inhibition) at 200 ppm in assay [1], in assay [3] and in assay [6] was no less than 80% each time. Moreover, the mortality at 200 ppm in assay [4] is no less than 80%. Moreover, in assay [2], the mortality at 24 ppm is no less than 80%.

For the compound `CCSc1cc2ccccc2cc1-c1nc2cc(C(F)(F)F)cnc2n1C` [Compound A1, 2-(3-ethylsulfanyl-2-naphthyl)-3-methyl-6-(trifluoromethyl)imidazo[4,5-b]pyridine], the percent effect (mortality or growth inhibition) at 200 ppm in assay [1] and in assay [3] was no less than 80% throughout.

Regarding `CCS(=O)(=O)c1cc2nc(-c3ccccc3)[nH]c2cc1-c1nc2cc(C(F)(F)F)ncc2n1C` [Compound A16, 2-(6-ethylsulfonyl-2-phenyl-3H-benzimidazol-5-yl)-3-methyl-6-(trifluoromethyl)imidazo[4,5-c]pyridine], in assay [6], the percent effect (mortality or growth inhibition) at 200 ppm was no less than 80%.

In the case of `CCS(=O)(=O)c1cc2nccnc2cc1-c1nc2cc(C(F)(F)F)ncc2n1C` [Compound A20, 6-ethylsulfonyl-7-[3-methyl-6-(trifluoromethyl)imidazo[4,5-c]pyridin-2-yl]quinoxaline], the mortality at 24 ppm in assay [2] is no less than 80%. Also, the percent effect (mortality or growth inhibition) at 200 ppm in assay [3] was no less than 80%.

On to `CCSc1cc2cnccc2cc1-c1nc2cc(C(F)(F)F)ncc2n1C` [Compound A25, 7-ethylsulfanyl-6-[3-methyl-6-(trifluoromethyl)imidazo[4,5-c]pyridin-2-yl]isoquinoline], for which the percent effect (mortality or growth inhibition) at 200 ppm in assay [1] and in assay [3] was no less than 80% in each case.

`CCS(=O)(=O)c1cc2ncsc2cc1-c1nc2cc(C(F)(F)F)ncc2n1C` [Compound A30, 5-ethylsulfonyl-6-[3-methyl-6-(trifluoromethyl)imidazo[4,5-c]pyridin-2-yl]-1,3-benzothiazole]: the percent effect (mortality or growth inhibition) at 200 ppm in assay [1], in assay [3] and in assay [6] was no less than 80% throughout.

As to `CCS(=O)(=O)c1cc2nc(C)n(C)c2cc1-c1nc2cc(C(F)(F)F)ncc2n1C` (single isomer, unassigned) [Compound A14, 2-(6-ethylsulfonyl-2,3-dimethyl-benzimidazol-5-yl)-3-methyl-6-(trifluoromethyl)imidazo[4,5-c]pyridine], the percent effect (mortality or growth inhibition) at 200 ppm in assay [1] was no less than 80%. In addition, in assay [4], the mortality at 200 ppm is no less than 80%.

Take `CCS(=O)(=O)c1cc2nn[nH]c2cc1-c1nc2cc(C(F)(F)F)ncc2n1C` [Compound A17, 2-(6-ethylsulfonyl-3H-benzotriazol-5-yl)-3-methyl-6-(trifluoromethyl)imidazo[4,5-c]pyridine]: the percent effect (mortality or growth inhibition) at 200 ppm in assay [1] was no less than 80%.

`CCS(=O)(=O)c1cc2nc(C)sc2cc1-c1nc2cc(C(F)(F)F)ncc2n1C` [Compound A19, 5-ethylsulfonyl-2-methyl-6-[3-methyl-6-(trifluoromethyl)imidazo[4,5-c]pyridin-2-yl]-1,3-benzothiazole]: in assay [7], the percent effect (mortality, anti-feeding or growth inhibition) at 12.5 ppm is no less than 80%. In addition, the percent effect (mortality or growth inhibition) at 200 ppm in assay [1] and in assay [3] was no less than 80% each time. Also, the mortality at 200 ppm in assay [4] and in assay [8] was no less than 80% throughout. Besides, the mortality at 24 ppm in assay [2] was no less than 80%.
